Source: US11771703B2, “Targeted epigenetic therapy against distal regulatory element of TGFβ2 expression” (The Johns Hopkins University, priority 2017, dated 2023)
Entries after “also recorded” stand apart in the source; their conditions may differ. Numbered stars: 1 amine (or outer) side, 2 acyl side, 3 side chain; on linkers, the order of the positions; unused ones are H or OH. Bridge positions count the residues as written; N and C are the ends. Square brackets hold non-standard residues; d marks the D form. Peptide text beside a SMILES is read from it. I, II: the chains in the order shown. Actinocin(9to1) = Cc1c2oc3c(C)ccc(C(=O)[*:1])c3nc-2c(C(=O)[*:2])c(N)c1=O; NMeV = CN[C@H](C(=O)O)C(C)C; Sar = CNCC(=O)O

What was measured:
[1] = system: TGFβ2 mRNA expression in SSc fibroblasts; assay: TGFβ2 mRNA expression in primary dermal control and SSc fibroblasts, RT-qPCR; type: cell-based, human; details: for TGFβ2 mRNA expression in SSc fibroblasts under treatment: SSc fibroblasts vs controls, serum-deprived, SGC-CBP30 72 hours, actinomycin D 12 hours; for TGFβ2 mRNA expression upon stimulation with cytokine/ligand: exogenous stimulation of fibroblasts; for TGFβ2 mRNA expression in SSc fibroblasts after drug removal: 72 hours treatment, then drug removal
Procedure: (§1) To test this hypothesis, it was first validated whether primary dermal SSc fibroblast lines established from dermal biopsies maintained stable gene expression differences at baseline. Six dermal fibroblasts lines from SSc patients and five dermal fibroblast lines from healthy controls were cultured in serum-deprived conditions (DMEM+1% FCS) for 48 hours, followed by mRNA isolation. RNAseq analysis indicated significant transcriptomic differences (FDR<0.05) with heightened expression of extracellular matrix genes (P<1E-9) in SSc fibroblasts (FIG. 1A). By RT-qPCR, elevated expression of pro-fibrotic genes, such as COL1A1 and SERPINH1 (FIG. 1B), were independently validated. TGFβ expression, the dominant pro-fibrotic cytokine, was also assessed. […] This indicated transcriptional upregulation of TGFβ2 in SSc fibroblasts.
Since heightened TGFβ2 signaling drives collagen expression in SSc cells, the possible mechanisms of heightened TGFβ2 ligand expression in SSc fibroblasts, was investigated. First, it was determined if SSc fibroblasts were actively transcribing TGFβ2 mRNA by treating SSc or control fibroblasts with the transcriptional inhibitor actinomycin D for 12 hours, followed by mRNA isolation and RT-qPCR.
Second, it was determined if autocrine TGFβ2 signaling drives the steady-state differences in TGFβ2 mRNA expression in SSc fibroblasts. Cells were treated with isotype control or αTGFβ2ab in the presence or absence of saturating levels of exogenous TGFβ2 ligand (10 ng/mL), followed by mRNA isolation and RT-qPCR.
Third, pharmacological acetyltransferase inhibitors were used to support the role of enhancers in TGFβ2 expression and to identify therapeutic strategies for SSc. Bromodomain inhibitor SGC-CBP30 specifically suppresses the acetyltransferase activity of P300. […] This indicated some form of epigenetic memory that re-activates the TGFβ2 enhancer in SSc fibroblasts.

TGFβ1 mRNA expression = TGFβ1 mRNA expression in fibroblasts, RT-qPCR; type: cell-based, human; details: fibroblasts under treatment
TGFβ3 mRNA expression = TGFβ3 mRNA expression in fibroblasts, RT-qPCR; type: cell-based, human; details: fibroblasts under treatment
[2] = system: collagen expression in SSc fibroblasts; assay: Collagen / fibrotic synthetic repertoire (FSR) expression in SSc fibroblasts, RT-qPCR; type: cell-based, human
Procedure: as §1
This provided evidence that autocrine TGFβ2 signaling drives high collagen expression in SSc. To test this, the activity of ALK5, a TGFβ receptor kinase required by all TGFβ isoforms, was inhibited. ALK5 inhibition normalized collagen expression in SSc fibroblasts (FIG. 1E, P<0.05).

TGFβ2 protein = TGFβ2 protein expression in SSc fibroblasts (western blot); type: cell-based, human
Procedure: FIG. 1A is a heatmap. Primary control and SSc fibroblasts were cultured ex vivo under serum deprived conditions (DMEM+1% FCS). Unsupervised hierarchical clustering was performed on genes with significant mRNA expression differences (FDR<0.05) assessed by RNA-seq on primary control and SSc fibroblasts. Top ranked GO term result for each gene cluster is indicated on the left of the heatmap. FIG. 1B are plots showing mRNA transcript levels measured by RT-qPCR. FIG. 1C: Transcript differences were correlated with protein expression by western blot under same culture conditions. FIG. 1D: Effects of TGFβ2 ligand stimulation on collagen expression was assessed in SSc fibroblasts. FIG. 1E: Effects of autocrine TGFβ2 signaling on mRNA expression of collagen was assessed through treatment of control and SSc fibroblasts with anti-TGFβ2 neutralizing antibody, followed by RT-qPCR. FIG. 1F: Effects of autocrine TGFβ2 stimulation on mRNA expression of TGFβ2 was assessed through treatment of control and SSc fibroblasts with combinations of anti-TGFBβ2 neutralizing antibody and exogenous TGFβ2 ligand ([…]). […]

[3] = system: TGFB2 enhancer (Enhancer 4514); assay: ChIP-qPCR occupancy (P300, BRD4, H3K27ac) at the TGFB2 enhancer; type: cell-based, human
Source text: (§2) The negative enantiomer of JQ1 was used as a negative control. […] In FIGS. 4G and 4H, BRD4 inhibition with JQ1 normalizes TGFβ2 protein and collagen mRNA expression in SSc fibroblasts. In FIGS. 4I, 4J and 4K, JQ1 treatment normalizes chromatin accessibility, H3K27ac and BRD4 occupancy at the TGFB2 enhancer in SSc fibroblasts. […] FIG. 4M: Heatmap of unsupervised hierarchical clustering of differentially expressed genes between vehicle or JQ1-treated control or SSc fibroblasts by RNA-seq (N=2). Rows represent differentially expressed genes between vehicle-treated control and SSc fibroblasts (FDR<0.05). Differences in expression of these genes are mitigated in SSc fibroblasts upon JQ1 treatment. […] Blue and red bars represent control and SSc fibroblasts, respectively. Ncontrol=5 and NSSc=6. Lower and upper margins of each bar indicate 25th and 75th percentiles, respectively; the internal line indicates the mean and whiskers indicate the range. Black points represent individual samples. All mRNA levels were normalized to GAPDH mRNA levels, respectively. All experiments other than RNA-seq and ATAC-qPCR were repeated at least twice with similar results.
Detecting activation status of TGFβ2 enhancer: To determine the activation status of the enhancer for TGFβ2 expression, chromatin immunoprecipitation was performed, followed by quantitative PCR (CHIP-qPCR), using primers that were uniquely designed based on ATAC-seq data for primary fibroblasts and published ENCODE data. The current method of detecting the activation status of TGFβ2 enhancer was implemented on primary human fibroblast cell lines established from dermal biopsies of normal controls or Scleroderma patients. However, the current method is applicable to adherent or non-adherent cells from tissue or blood of subjects (e.g., human patients).
To determine if Enhancer 4514 was biologically functional, a three-pronged approach was taken. First, active and functional enhancers are strongly associated with H3K27ac histone modifications with heightened occupancy of P300 (histone acetyltransferase) (Cato E et al. (2013) Cell Molecular Cell Reviews. 49:825-837). Thus, chromatin immunoprecipitation was used followed by qPCR (ChIP-qPCR) to determine the level of H3K27ac and P300 at Enhancer 4514 in SSc and control fibroblasts under baseline serum-deprived conditions. […] Furthermore, moderately higher levels of phosphorylated SMAD2 occupancy was found at enhancer 4514 in SSc.

[4] = system: TGFB2 enhancer (Enhancer 4514); assay: Chromatin accessibility at the TGFB2 enhancer (ATAC); type: cell-based, human; details: SSc fibroblasts under treatment
Source text: as §2
To test this hypothesis, an RNA-seq and Assay for Transposase-Accessible Chromatin Sequencing (ATAC-seq) were performed on three primary control fibroblast lines and three primary SSc fibroblast lines^7. […]

SSc fibroblasts = assay: RNA-seq transcriptome of vehicle or JQ1-treated control or SSc fibroblasts; type: cell-based, human
Source text: as §2, with “All experiments other than RNA-seq and ATAC-qPCR were repeated at least twice with similar results.” left out
To test this hypothesis, it was first validated whether primary dermal SSc fibroblast lines established from dermal biopsies maintained stable gene expression differences at baseline. […] TGFβ expression, the dominant pro-fibrotic cytokine, was also assessed. […]

TGFB2 enhancer = details: Chem-seq database GSE44098, GSE43743; cited from earlier work
Scleroderma cells = assay: Cell toxicity of CBP/P300 inhibitor treatment
[5] = SSc fibroblasts under treatment
[6] = SSc fibroblasts, 72 hours treatment then removal

## Cc1c2oc3c(C)ccc(C(=O)N[C@@H]4C(=O)N[C@H](C(C)C)C(=O)N5CCC[C@H]5C(=O)N(C)CC(=O)N(C)[C@@H](C(C)C)C(=O)O[C@@H]4C)c3nc-2c(C(=O)N[C@@H]2C(=O)N[C@H](C(C)C)C(=O)N3CCC[C@H]3C(=O)N(C)CC(=O)N(C)[C@@H](C(C)C)C(=O)O[C@@H]2C)c(N)c1=O [actinomycin D] (I: T[dV]P[Sar][NMeV] / II: T[dV]P[Sar][NMeV]; ester I:1-I:C, II:1-II:C; linker I:N-II:N via Actinocin(9to1))
[1]
  TGFβ2 mRNA expression in SSc fibroblasts under treatment: completely normalized
TGFβ1 mRNA expression
  TGFβ1 mRNA expression: did not significantly alter
TGFβ3 mRNA expression
  TGFβ3 mRNA expression: did not significantly alter

## TNFα
[1]
  TGFβ2 mRNA expression upon stimulation with cytokine/ligand: increased TGFβ2 expression; also recorded: induces TGFB2 mRNA expression

## Cc1sc2c(c1C)C(c1ccc(Cl)cc1)=N[C@@H](CC(=O)OC(C)(C)C)c1nnc(C)n1-2 [JQ1]
[1]
  TGFβ2 mRNA expression in SSc fibroblasts after drug removal: sustained repression; also recorded: sustained suppression; also recorded: maintained even after drug removal
  TGFβ2 mRNA expression in SSc fibroblasts under treatment: rapidly normalized; also recorded: decreased
[1]; co-stimulation with TGFβ2 ligand (10 ng/mL)
  TGFβ2 mRNA induction by exogenous TGFβ2 ligand under co-treatment: failed to induce TGFβ2 mRNA expression
[1]; single 48 hr regiment
  TGFβ2 mRNA expression in SSc fibroblasts after a single 48 hr regiment: permanently normalizes
[2]; e.g. COL1A1, SERPINH1
  fibrotic synthetic repertoire (FSR) in SSc cells: normalization
[2]; mRNA, RT-qPCR
  collagen expression in SSc fibroblasts: rapidly normalized; also recorded: normalizes
TGFβ2 protein
  TGFβ2 protein levels in SSc fibroblasts: rapidly normalized; also recorded: normalizes
[3]; [5]
  BRD4 occupancy at the TGFB2 enhancer: complete normalization; also recorded: normalizes
  H3K27ac at the TGFB2 enhancer: complete normalization; also recorded: normalizes
[3]; [6]
  BRD4 occupancy at the TGFB2 enhancer after drug removal: continued normalization; also recorded: sustained normalization
  H3K27ac at the TGFB2 enhancer after drug removal: continued normalization; also recorded: sustained normalization
  P300 occupancy at the TGFB2 enhancer after drug removal: continued normalization; also recorded: sustained normalization
[4]
  chromatin accessibility at the TGFB2 enhancer: complete normalization; also recorded: normalizes
SSc fibroblasts; N=2
  transcriptomic differences between control and SSc fibroblasts (RNA-seq): significantly mitigated transcriptomic differences
SSc fibroblasts; PC1, 67% of total variance
  clustering in principal component analysis of RNA-seq: cluster together with control samples in PC1; also recorded: cluster with control fibroblasts
TGFB2 enhancer
  binding at the TGFB2 enhancer (Chem-seq): specifically bound to the TGFB2 enhancer; also recorded: specific binding

## COc1ccc(CCc2nc3cc(-c4c(C)noc4C)ccc3n2C[C@H](C)N2CCOCC2)cc1Cl [SGC-CBP30]
[1]
  TGFβ2 mRNA expression in SSc fibroblasts after drug removal: rebounded to steady-state levels
  TGFβ2 mRNA expression in SSc fibroblasts under treatment: normalized TGFβ2 expression in SSc fibroblasts to levels comparable to that of controls; also recorded: suppressed; also recorded: decrease TGFβ2 expression in Scleroderma cells to levels comparable to that of control
[1]; listed as SGC-CBP300
  TGFβ2 mRNA expression in SSc fibroblasts under treatment: specifically decrease
[1]; after 72 hours of treatment and drug removal
  TGFβ2 mRNA level in SSc cells compared to control after drug removal: 3 fold
[3]; SSc fibroblasts, 72 hours
  P300 occupancy of the TGFB2 enhancer under treatment: suppressed
[3]; [6]
  P300 occupancy at the TGFB2 enhancer after drug removal: re-establish high P300 occupancy; also recorded: rebounded to steady-state levels
TGFβ1 mRNA expression
  TGFβ1 mRNA expression: not TGFβ1 or TGFβ3
TGFβ3 mRNA expression
  TGFβ3 mRNA expression: not TGFβ1 or TGFβ3
Scleroderma cells
  cell toxicity: minimal cell toxicity

## CC(C)(C)c1ccc(S(=O)(=O)/C=C/C#N)cc1 [BAY 11-7085]
[1]
  TGFβ2 mRNA expression in SSc fibroblasts after drug removal: sustained normalization
  TGFβ2 mRNA expression in SSc fibroblasts under treatment: robustly suppressed
[1]; listed as BAY 11-70585
  TGFβ2 mRNA expression in SSc fibroblasts after drug removal: sustained repression
[1]; co-treatment with TNFα
  TNFα-induced TGFB2 mRNA expression under co-treatment: prevents TGFB2 induction

B1: TGFβ2 ligand: exogenous TGFβ2 ligand (10 ng/mL) (protein, UniProt P61812 303-414, looked up)
Transforming growth factor …: ALDAAYCFRNVQDNCCLRPLYIDFKRDLGWKWIHEPKGYNANFCAGACPYLWSSDTQHSRVLSLYNTINPEASASPCCVSQDLEPLTILYYIGKTPKIEQLSNMIVKSCKCS
[1]
  TGFβ2 mRNA expression upon stimulation with cytokine/ligand: pronounced further increase in TGFβ2 mRNA
